Assays:
[1] = test system: primary human monocytes; assay: Human monocyte DC differentiation with SNU398 cells or conditioned media; assay type: cell-based
Excerpt: (§1) FIGS. 22A-22E: RALDH1 inhibition blocks RA-mediated effects of HCC on monocyte differentiation. FIGS. 22A-22B: Circulating primary human monocytes from donors (FIG. 22A) or murine monocytes from bone marrow (FIG. 22B) were cocultured with SNU398 (Human HCC) cells or treated with SNU398-conditioned media (CM) in a DC differentiation system (GM-CSF and IL-4). Two-color histograms show the frequencies of DCs (CD11c^+CD1a^+ for human and CD11c^+MHCII^+ for mouse). The presence of SNU398 or its CM suppressed DC differentiation, which is reversed when SNU398 cells are treated with C86. Three or more independent experiments were performed with at least three replicates per experimental group. Unpaired t test, two-tailed. FIG. 22C: Huh7 (human HCC) cells were subcutaneously injected into flanks of NU/J mice. […] The frequencies of the host (murine) DCs (CD45^+F4/80^−CD11C^+MHCII-high) and macrophages (CD45^+F4/80^+) are quantified in a bar graph. […] Shown are the representative FCM plot (histogram) and DC quantification (bar graph). […]
Mouse monocytes were isolated from bone marrow as described herein and then cultured in RPMI 1640 (ThermoFisher Scientific, Cat #11875085) with 10% fetal bovine serum (GeminiBio, Cat #100-500). […] Cellular identity and function of differentiated monocytes was assessed by flow cytometry and quantitative PCR (qPCR).

[2] = test system: monocytes in Huh7 tumors; assay: Differentiation of human monocytes injected into Huh7 tumors in NU/J mice; assay type: in vivo, mouse; conditions: 10 mg/kg, i.p, daily
Excerpt: as §1, with “mice. 12 days later the tumor size was about 50 mm^3 and C86 or vehicle treatment (10 mg/kg, i.p, daily injection) was started.” for “mice.”
Monocytes were isolated (as described above) from mouse bone marrow of C57BL/6 mice and counted. […] Tumors were harvested at specified time points and analyzed by flow cytometry. […]

[3] = target: T1, Peptidase, Angiotensin Converting Enzyme (Oryctolagus cuniculus, UniProt P12822); assay: Safetyscreen: ACE; assay type: biochemical, rabbit; conditions: read-out: % Inh. Peptidase, Angiotensin Converting Enzyme
T1 construct: Eurofins Cerep Panlabs (contract panel)

[4] = target: T2, Peptidase, CTSG (Cathepsin G) (Homo sapiens, UniProt P08311); assay: Safetyscreen: Cathepsin G; assay type: biochemical; conditions: read-out: % Inh. Peptidase, CTSG (Cathepsin G)
T2 construct: Eurofins Cerep Panlabs (contract panel)

[5] = target: T3, Androgen (Testosterone) (Homo sapiens, UniProt P10275); assay: Safetyscreen: Androgen; assay type: binding; conditions: read-out: % Inh. Androgen (Testosterone)
T3 construct: Eurofins Cerep Panlabs (contract panel)

[6] = target: T4, Glutamate, Metabotropic, mGlu5 (Homo sapiens, UniProt P41594); assay: Safetyscreen: mGlu5; assay type: binding; conditions: read-out: % Inh. Glutamate, Metabotropic, mGlu5
T4 construct: purchased Eurofins Cereps Panlabs

[7] = target: T5, Leukotriene, Cysteinyl CysLT1 (Homo sapiens, UniProt Q9Y271); assay: Safetyscreen: CysLT1; assay type: binding; conditions: read-out: % Inh. Leukotriene, Cysteinyl CysLT1
T5 construct: purchased Eurofins Cereps Panlabs

[8] = target: T6, Melanocortin MC1 (Homo sapiens, UniProt Q01726); assay: Safetyscreen: MC1; assay type: binding; conditions: read-out: % Inh. Melanocortin MC1
T6 construct: purchased Eurofins Cereps Panlabs

[9] = target: T7, Muscarinic M2 (Homo sapiens, UniProt P08172); assay: Safetyscreen: Muscarinic M2; assay type: binding; conditions: read-out: % Inh. Muscarinic M2
T7 construct: Eurofins Cereps Panlabs (contract panel)

[10] = target: T8, Serotonin (5-Hydroxytryptamine) 5-HT1A (Homo sapiens, UniProt P08908); assay: Safetyscreen: 5-HT1A; assay type: binding; conditions: read-out: % Inh. Serotonin (5-Hydroxytryptamine) 5-HT1A
T8 construct: Eurofins Cereps Panlabs (contract panel)

[11] = target: T9, Transporter, Dopamine (DAT) (Homo sapiens, UniProt Q01959); assay: Safetyscreen: DAT; assay type: binding; conditions: read-out: % Inh. Transporter, Dopamine (DAT)
T9 construct: purchased Eurofins Cereps Panlabs
T9 sequence (Q01959 whole entry): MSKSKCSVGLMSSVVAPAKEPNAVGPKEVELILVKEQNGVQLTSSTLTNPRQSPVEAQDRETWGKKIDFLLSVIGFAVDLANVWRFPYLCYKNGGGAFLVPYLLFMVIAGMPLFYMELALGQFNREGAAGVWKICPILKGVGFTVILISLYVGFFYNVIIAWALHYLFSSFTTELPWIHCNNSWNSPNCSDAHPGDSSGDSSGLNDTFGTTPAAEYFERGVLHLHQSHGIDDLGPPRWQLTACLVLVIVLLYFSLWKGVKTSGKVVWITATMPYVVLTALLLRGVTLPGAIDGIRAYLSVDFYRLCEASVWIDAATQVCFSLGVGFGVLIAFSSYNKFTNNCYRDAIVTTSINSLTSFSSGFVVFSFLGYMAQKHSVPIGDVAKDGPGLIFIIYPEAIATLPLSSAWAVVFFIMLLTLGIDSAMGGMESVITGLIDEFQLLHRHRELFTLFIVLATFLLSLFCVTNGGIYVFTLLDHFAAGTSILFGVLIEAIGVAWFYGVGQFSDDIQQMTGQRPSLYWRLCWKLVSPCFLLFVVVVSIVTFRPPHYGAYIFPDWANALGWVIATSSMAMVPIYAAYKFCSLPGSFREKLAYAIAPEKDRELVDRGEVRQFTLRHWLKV

T2 sequence (P08311 21-244): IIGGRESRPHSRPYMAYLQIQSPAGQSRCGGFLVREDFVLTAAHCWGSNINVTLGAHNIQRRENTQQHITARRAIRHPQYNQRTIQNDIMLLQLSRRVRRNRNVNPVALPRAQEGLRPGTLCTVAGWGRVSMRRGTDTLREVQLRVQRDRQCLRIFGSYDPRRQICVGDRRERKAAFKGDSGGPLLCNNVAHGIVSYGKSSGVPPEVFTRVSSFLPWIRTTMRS
T7 sequence (P08172 whole entry): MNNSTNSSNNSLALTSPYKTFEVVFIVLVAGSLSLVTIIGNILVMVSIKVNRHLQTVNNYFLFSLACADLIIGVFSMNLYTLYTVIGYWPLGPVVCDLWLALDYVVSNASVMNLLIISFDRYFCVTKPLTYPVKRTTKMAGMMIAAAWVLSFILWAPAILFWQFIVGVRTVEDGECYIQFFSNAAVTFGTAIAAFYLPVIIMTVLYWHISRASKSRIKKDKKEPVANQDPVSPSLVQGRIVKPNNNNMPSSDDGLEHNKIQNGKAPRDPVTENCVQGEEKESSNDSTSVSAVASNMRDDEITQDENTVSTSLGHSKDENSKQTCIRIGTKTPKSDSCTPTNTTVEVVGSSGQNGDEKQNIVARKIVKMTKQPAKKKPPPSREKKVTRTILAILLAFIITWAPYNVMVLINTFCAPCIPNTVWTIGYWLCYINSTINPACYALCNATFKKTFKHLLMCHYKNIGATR
T1 sequence (P12822 34-1310): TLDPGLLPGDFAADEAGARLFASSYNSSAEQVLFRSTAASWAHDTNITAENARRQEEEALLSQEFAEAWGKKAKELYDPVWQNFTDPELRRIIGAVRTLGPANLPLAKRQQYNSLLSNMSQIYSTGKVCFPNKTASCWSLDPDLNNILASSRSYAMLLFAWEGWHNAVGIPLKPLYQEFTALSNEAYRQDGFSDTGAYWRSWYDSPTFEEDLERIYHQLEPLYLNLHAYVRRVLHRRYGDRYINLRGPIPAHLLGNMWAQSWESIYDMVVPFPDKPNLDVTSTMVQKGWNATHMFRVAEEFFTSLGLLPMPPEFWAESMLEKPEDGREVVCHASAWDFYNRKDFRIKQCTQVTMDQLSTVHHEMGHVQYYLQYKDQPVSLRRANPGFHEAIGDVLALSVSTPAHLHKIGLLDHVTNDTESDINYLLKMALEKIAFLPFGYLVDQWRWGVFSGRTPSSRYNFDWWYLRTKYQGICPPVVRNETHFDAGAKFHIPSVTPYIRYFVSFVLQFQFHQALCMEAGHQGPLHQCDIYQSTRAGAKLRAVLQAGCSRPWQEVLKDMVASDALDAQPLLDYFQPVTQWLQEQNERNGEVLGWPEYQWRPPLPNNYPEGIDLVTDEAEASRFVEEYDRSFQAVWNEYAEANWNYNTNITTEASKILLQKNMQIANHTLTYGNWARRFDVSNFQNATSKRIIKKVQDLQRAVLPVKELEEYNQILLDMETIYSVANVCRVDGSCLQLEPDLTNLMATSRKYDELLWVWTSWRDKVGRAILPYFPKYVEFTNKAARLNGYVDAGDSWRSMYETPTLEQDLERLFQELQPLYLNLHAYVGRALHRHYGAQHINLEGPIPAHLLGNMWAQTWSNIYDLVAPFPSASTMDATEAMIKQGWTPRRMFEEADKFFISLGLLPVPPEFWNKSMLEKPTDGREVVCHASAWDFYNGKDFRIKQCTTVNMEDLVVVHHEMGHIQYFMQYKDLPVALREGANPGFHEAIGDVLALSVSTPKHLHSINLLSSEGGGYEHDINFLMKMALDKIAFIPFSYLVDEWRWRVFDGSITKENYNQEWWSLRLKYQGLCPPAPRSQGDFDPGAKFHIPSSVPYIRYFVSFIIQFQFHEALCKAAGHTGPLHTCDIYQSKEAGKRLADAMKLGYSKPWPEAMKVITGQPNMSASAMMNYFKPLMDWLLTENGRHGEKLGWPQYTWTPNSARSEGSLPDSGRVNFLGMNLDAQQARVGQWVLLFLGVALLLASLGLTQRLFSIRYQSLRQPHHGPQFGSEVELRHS
T6 sequence (Q01726 whole entry): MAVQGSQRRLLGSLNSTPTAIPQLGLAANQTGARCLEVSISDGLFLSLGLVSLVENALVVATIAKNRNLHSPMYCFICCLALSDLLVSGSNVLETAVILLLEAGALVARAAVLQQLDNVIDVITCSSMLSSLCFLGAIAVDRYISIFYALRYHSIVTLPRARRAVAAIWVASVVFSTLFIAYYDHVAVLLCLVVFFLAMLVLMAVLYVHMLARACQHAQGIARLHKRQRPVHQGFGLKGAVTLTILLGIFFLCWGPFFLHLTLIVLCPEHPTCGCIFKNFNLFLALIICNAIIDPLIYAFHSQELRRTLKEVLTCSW
T3 sequence (P10275 whole entry): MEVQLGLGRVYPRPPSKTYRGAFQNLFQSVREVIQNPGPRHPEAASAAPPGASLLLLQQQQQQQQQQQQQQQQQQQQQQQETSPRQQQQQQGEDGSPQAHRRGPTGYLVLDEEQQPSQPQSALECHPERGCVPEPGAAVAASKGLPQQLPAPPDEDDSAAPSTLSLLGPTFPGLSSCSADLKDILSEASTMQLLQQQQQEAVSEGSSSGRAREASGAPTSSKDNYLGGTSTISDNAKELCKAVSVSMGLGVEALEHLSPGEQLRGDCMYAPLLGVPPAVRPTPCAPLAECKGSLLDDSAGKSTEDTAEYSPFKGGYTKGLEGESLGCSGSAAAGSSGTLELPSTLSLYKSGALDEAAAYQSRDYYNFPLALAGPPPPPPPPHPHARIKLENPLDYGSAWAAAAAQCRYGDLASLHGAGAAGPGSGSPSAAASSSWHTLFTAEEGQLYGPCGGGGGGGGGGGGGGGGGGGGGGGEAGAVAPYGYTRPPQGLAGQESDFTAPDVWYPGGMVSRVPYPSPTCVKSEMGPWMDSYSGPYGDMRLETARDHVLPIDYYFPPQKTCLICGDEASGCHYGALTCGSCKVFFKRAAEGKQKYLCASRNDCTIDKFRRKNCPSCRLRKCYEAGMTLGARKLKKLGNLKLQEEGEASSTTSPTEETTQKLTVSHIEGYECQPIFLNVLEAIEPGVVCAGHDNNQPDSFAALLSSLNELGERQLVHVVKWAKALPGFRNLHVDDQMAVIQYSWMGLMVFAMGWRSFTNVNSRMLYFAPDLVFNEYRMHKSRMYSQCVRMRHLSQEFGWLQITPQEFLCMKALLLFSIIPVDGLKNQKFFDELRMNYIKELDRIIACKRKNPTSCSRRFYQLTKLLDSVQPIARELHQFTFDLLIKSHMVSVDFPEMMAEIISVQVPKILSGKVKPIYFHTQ
T5 sequence (Q9Y271 whole entry): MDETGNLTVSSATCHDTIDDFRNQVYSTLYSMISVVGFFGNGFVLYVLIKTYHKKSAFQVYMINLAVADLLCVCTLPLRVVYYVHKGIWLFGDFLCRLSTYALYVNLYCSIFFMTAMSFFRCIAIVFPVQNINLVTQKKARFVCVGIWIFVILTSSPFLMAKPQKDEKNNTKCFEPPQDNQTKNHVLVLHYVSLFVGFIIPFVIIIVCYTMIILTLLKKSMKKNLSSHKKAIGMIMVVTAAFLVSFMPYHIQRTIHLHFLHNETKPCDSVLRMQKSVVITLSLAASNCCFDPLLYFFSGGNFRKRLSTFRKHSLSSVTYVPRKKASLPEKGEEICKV
T8 sequence (P08908 whole entry): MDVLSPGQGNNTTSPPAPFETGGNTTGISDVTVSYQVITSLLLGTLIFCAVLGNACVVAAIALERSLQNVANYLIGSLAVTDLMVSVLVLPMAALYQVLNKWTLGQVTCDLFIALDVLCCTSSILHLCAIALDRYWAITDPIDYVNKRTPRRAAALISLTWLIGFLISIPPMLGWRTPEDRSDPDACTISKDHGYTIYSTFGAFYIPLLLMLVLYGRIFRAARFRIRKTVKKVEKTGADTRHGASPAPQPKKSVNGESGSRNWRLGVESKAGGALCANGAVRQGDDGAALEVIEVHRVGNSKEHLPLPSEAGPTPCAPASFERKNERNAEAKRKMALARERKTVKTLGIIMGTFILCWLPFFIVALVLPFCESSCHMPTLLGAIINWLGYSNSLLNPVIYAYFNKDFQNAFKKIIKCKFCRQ

`CS(=O)(=O)N1CCN(C(=O)c2cnc3ccc(F)cc3c2N2CCC(C#N)(c3ccccc3)CC2)CC1` [Compound C-86, 1-(6-fluoro-3-(4-(methylsulfonyl)piperazine-1-carbonyl)quinolin-4-yl)-4-phenylpiperidine-4-carbonitrile] was tested. Which “potential of monocytes to differentiate into DCs” value ([1]; direct treatment of monocytes in vitro) did it give?
The value was “did not alter”.

What about the “suppression of DC differentiation by HCC cells or CM” value ([1]; human monocytes, HCC cells pre-treated) of the same compound?
Its value is “reversed”.

And the “frequency of host (murine) DCs and macrophages in the TME” value [2]?
Its value is “increased frequency of DCs and reduced frequency of macrophages”.

What about the “DC differentiation from transplanted human monocytes” value ([2]; five days after monocyte injection) of the same compound?
Its value is “increased DC differentiation”.

And the inhibition at 10 µM [3]?
Its inhibition at 10 µM is -6%.

What about the inhibition at 10 µM [4] of the same compound?
The inhibition at 10 µM was 0%.

And the inhibition at 10 µM [5]?
The inhibition at 10 µM was 16%.

What about the inhibition at 10 µM [6] of the same compound?
The inhibition at 10 µM was 16%.

And the inhibition at 10 µM [7]?
Its inhibition at 10 µM is 5%.

And the inhibition at 10 µM [8]?
The inhibition at 10 µM was 8%.

What about the inhibition at 10 µM [9] of the same compound?
The inhibition at 10 µM was 4%.

What about the inhibition at 10 µM [10] of the same compound?
The inhibition at 10 µM was 5%.

And the inhibition at 10 µM [11]?
The inhibition at 10 µM was 8%.
